How the values were obtained:
[1] = molecular target: T1, Orexin/Hypocretin receptor type 1 (Homo sapiens) (UniProt O43613); assay: Agonist activity against human orexin 1 receptor; EC50; nM; format: functional
T1 sequence (whole entry): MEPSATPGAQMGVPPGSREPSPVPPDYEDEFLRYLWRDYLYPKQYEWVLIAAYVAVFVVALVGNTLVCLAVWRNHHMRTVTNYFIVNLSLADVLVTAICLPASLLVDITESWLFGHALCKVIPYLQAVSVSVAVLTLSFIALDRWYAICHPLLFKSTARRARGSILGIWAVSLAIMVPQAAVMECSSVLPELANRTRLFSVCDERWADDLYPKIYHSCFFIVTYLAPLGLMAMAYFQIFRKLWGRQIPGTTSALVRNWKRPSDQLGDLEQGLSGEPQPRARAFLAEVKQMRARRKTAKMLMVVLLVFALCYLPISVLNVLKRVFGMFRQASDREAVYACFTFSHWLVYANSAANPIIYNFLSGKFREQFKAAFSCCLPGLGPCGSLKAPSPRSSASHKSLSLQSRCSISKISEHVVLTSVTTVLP

[2] = molecular target: T2, Orexin receptor type 2 (Homo sapiens) (UniProt O43614); assay: (§1) Agonist activity against human orexin 2 receptor; EC50; nM; format: functional
T2 sequence (whole entry): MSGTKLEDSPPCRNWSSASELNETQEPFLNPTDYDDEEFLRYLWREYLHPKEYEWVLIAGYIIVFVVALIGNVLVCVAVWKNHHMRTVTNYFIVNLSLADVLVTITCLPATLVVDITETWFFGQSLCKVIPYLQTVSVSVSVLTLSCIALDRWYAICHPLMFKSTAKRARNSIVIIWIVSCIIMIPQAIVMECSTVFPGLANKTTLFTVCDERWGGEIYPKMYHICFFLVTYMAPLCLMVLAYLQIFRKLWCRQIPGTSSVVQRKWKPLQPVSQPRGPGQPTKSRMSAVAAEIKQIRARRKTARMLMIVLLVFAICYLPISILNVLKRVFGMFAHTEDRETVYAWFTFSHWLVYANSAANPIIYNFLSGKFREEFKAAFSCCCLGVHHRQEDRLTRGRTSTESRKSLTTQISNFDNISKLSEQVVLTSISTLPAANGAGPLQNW

Homo sapiens = organism: Homo sapiens; assay: (§2) Agonist selectivity for orexin receptor 1 versus orexin receptor 2; format: functional
Orexin receptor type 2 = molecular target: T3, Orexin receptor type 2 (Homo sapiens, UniProt O43614); assay: as §1; format: functional
T3 sequence (O43614 whole entry): T2 sequence (whole entry)

[3] = as §2; format: functional, Homo sapiens

EC50 (Orexin receptor type 2) [pM] | also measured | Compound
– | EC50 [1]: 52000 pM; EC50 [2]: 130 pM; selectivity (Homo sapiens): 400 | CC[C@H](C)[C@H](NC(=O)[C@H](CC(C)C)NC(=O)[C@@H](NC(=O)[C@@H](N)CCSC)[C@@H](C)O)C(=O)NCC(=O)N[C@@H](C)C(=O)N[C@@H](C)C(=O)N[C@@H](Cc1c[nH]cn1)C(=O)N[C@@H](CC(N)=O)C(=O)NCC(=O)N[C@@H](CO)C(=O)N[C@@H](C)C(=O)N[C@@H](CCC(N)=O)C(=O)N[C@H](CC(C)C)C(=O)N[C@@H](CC(C)C)C(=O)N[C@@H](CCCN=C(N)N)C(=O)N[C@@H](CCC(N)=O)C(=O)N[C@@H](C)C(=O)N[C@@H](CCCN=C(N)N)C(=O)NCC(=O)N[C@@H](CCC(N)=O)C(=O)N[C@@H](CC(C)C)C(=O)NCC(=O)N1CCC[C@H]1C(=O)N1CCC[C@H]1C(=O)NCC(=O)N[C@@H](CO)C(=O)N[C@@H](CCCN=C(N)N)C(N)=O
– | EC50 [1]: 270000 pM; EC50 [2]: 1900 pM; selectivity (Homo sapiens): 140 | CC[C@H](C)[C@H](NC(=O)[C@H](CC(C)C)NC(=O)[C@@H](NC(=O)[C@@H](N)CCSC)[C@@H](C)O)C(=O)NCC(=O)N[C@@H](C)C(=O)N[C@@H](C)C(=O)N[C@@H](Cc1c[nH]cn1)C(=O)N[C@@H](CC(N)=O)C(=O)NCC(=O)N[C@@H](CO)C(=O)N[C@@H](C)C(=O)N[C@@H](CCC(N)=O)C(=O)N[C@@H](CC(C)C)C(=O)N[C@H](CC(C)C)C(=O)N[C@@H](CCCN=C(N)N)C(=O)N[C@@H](CCC(N)=O)C(=O)N[C@@H](C)C(=O)N[C@@H](CCCN=C(N)N)C(=O)NCC(=O)N[C@@H](CCC(N)=O)C(=O)N[C@@H](CC(C)C)C(=O)NCC(=O)N1CCC[C@H]1C(=O)N1CCC[C@H]1C(=O)NCC(=O)N[C@@H](CO)C(=O)N[C@@H](CCCN=C(N)N)C(N)=O
160 | – | CC[C@H](C)[C@H](NC(=O)[C@H](CC(C)C)NC(=O)[C@@H](NC(=O)[C@@H](N)CCSC)[C@@H](C)O)C(=O)NCC(=O)N[C@@H](C)C(=O)N[C@@H](C)C(=O)N[C@@H](Cc1c[nH]cn1)C(=O)N[C@@H](CC(N)=O)C(=O)NCC(=O)N[C@@H](CO)C(=O)N[C@@H](C)C(=O)N[C@@H](CCC(N)=O)C(=O)N[C@@H](CC(C)C)C(=O)N[C@@H](CC(C)C)C(=O)N[C@@H](CCCN=C(N)N)C(=O)N[C@@H](CCC(N)=O)C(=O)N[C@@H](CC(C)C)C(=O)N[C@@H](CCCN=C(N)N)C(=O)NCC(=O)N[C@@H](CCC(N)=O)C(=O)N[C@@H](CC(C)C)C(=O)NCC(=O)N1CCC[C@@H]1C(=O)N1CCC[C@H]1C(=O)NCC(=O)N[C@@H](CO)C(=O)N[C@@H](CCCN=C(N)N)C(N)=O
1000 | – | CC[C@H](C)[C@H](NC(=O)[C@H](CC(C)C)NC(=O)[C@@H](NC(=O)[C@@H](N)CCSC)[C@@H](C)O)C(=O)NCC(=O)N[C@@H](C)C(=O)N[C@@H](C)C(=O)N[C@H](Cc1cnc[nH]1)C(=O)N[C@@H](CC(N)=O)C(=O)NCC(=O)N[C@@H](CO)C(=O)N[C@@H](C)C(=O)N[C@@H](CCC(N)=O)C(=O)N[C@@H](CC(C)C)C(=O)N[C@@H](CC(C)C)C(=O)N[C@@H](CCCN=C(N)N)C(=O)N[C@@H](CCC(N)=O)C(=O)N[C@@H](CC(C)C)C(=O)N[C@@H](CCCN=C(N)N)C(=O)NCC(=O)N[C@@H](CCC(N)=O)C(=O)N[C@@H](CC(C)C)C(=O)NCC(=O)N1CCC[C@H]1C(=O)N1CCC[C@H]1C(=O)NCC(=O)N[C@@H](CO)C(=O)N[C@@H](CCCN=C(N)N)C(N)=O
220 | – | H-MTLIGAAHNGSAQLLRQLRGQLGPPGAR-NH2
67000 | – | CC[C@H](C)[C@H](NC(=O)[C@H](CC(C)C)NC(=O)[C@@H](NC(=O)[C@@H](N)CCSC)[C@@H](C)O)C(=O)N[C@H](C)C(=O)N[C@@H](C)C(=O)N[C@@H](C)C(=O)N[C@@H](Cc1cnc[nH]1)C(=O)N[C@@H](CC(N)=O)C(=O)NCC(=O)N[C@@H](CO)C(=O)N[C@@H](C)C(=O)N[C@@H](CCC(N)=O)C(=O)N[C@@H](CC(C)C)C(=O)N[C@@H](CC(C)C)C(=O)N[C@@H](CCCN=C(N)N)C(=O)N[C@@H](CCC(N)=O)C(=O)N[C@@H](CC(C)C)C(=O)N[C@@H](CCCN=C(N)N)C(=O)NCC(=O)N[C@@H](CCC(N)=O)C(=O)N[C@@H](CC(C)C)C(=O)NCC(=O)N1CCC[C@H]1C(=O)N1CCC[C@H]1C(=O)NCC(=O)N[C@@H](CO)C(=O)N[C@@H](CCCN=C(N)N)C(N)=O
230 | – | H-MTLIGAAHNGSAQLLRALRGQLGPPGSR-NH2
91 | – | H-MTLIGAAHNGSGQLLRQLRGQLGPPGSR-NH2
– | EC50 [1]: 830 pM; EC50 [2]: 81 pM; selectivity (Homo sapiens): 10; selectivity [3]: 10 | CC[C@H](C)[C@H](NC(=O)[C@H](CC(C)C)NC(=O)[C@@H](NC(=O)[C@@H](N)CCSC)[C@@H](C)O)C(=O)NCC(=O)N[C@@H](C)C(=O)N[C@@H](C)C(=O)N[C@@H](Cc1c[nH]cn1)C(=O)N[C@@H](CC(N)=O)C(=O)NCC(=O)N[C@@H](CO)C(=O)N[C@@H](C)C(=O)N[C@@H](CCC(N)=O)C(=O)N[C@@H](CC(C)C)C(=O)N[C@@H](CC(C)C)C(=O)N[C@@H](CCCN=C(N)N)C(=O)N[C@@H](CCC(N)=O)C(=O)N[C@@H](CC(C)C)C(=O)N[C@@H](CCCN=C(N)N)C(=O)NCC(=O)N[C@@H](CCC(N)=O)C(=O)N[C@@H](CC(C)C)C(=O)NCC(=O)N1CCC[C@H]1C(=O)N1CCC[C@H]1C(=O)NCC(=O)N[C@@H](CO)C(=O)N[C@@H](CCCN=C(N)N)C(N)=O [OREXIN B]
> 200000 | – | CC[C@H](C)[C@H](NC(=O)[C@@H](CC(C)C)NC(=O)[C@@H](NC(=O)[C@@H](N)CCSC)[C@@H](C)O)C(=O)NCC(=O)N[C@@H](C)C(=O)N[C@@H](C)C(=O)N[C@@H](Cc1cnc[nH]1)C(=O)N[C@@H](CC(N)=O)C(=O)NCC(=O)N[C@@H](CO)C(=O)N[C@@H](C)C(=O)N[C@@H](CCC(N)=O)C(=O)N[C@@H](CC(C)C)C(=O)N[C@@H](CC(C)C)C(=O)N[C@@H](CCCN=C(N)N)C(=O)N[C@@H](CCC(N)=O)C(=O)N[C@@H](CC(C)C)C(=O)N[C@@H](CCCN=C(N)N)C(=O)NCC(=O)N[C@@H](CCC(N)=O)C(=O)N[C@@H](CC(C)C)C(=O)NCC(=O)N1CCC[C@H]1C(=O)N1CCC[C@H]1C(=O)NCC(=O)N[C@@H](CO)C(=O)N[C@@H](CCCN=C(N)N)C(N)=O
15000 | – | H-ATLIGAAHNGSAQLLRQLRGQLGPPGSR-NH2
130 | – | H-MTLIGAAHNGSAQLLAQLRGQLGPPGSR-NH2
150 | – | CC[C@H](C)[C@H](NC(=O)[C@H](CC(C)C)NC(=O)[C@@H](NC(=O)[C@@H](N)CCSC)[C@@H](C)O)C(=O)NCC(=O)N[C@@H](C)C(=O)N[C@@H](C)C(=O)N[C@@H](Cc1c[nH]cn1)C(=O)N[C@@H](CC(N)=O)C(=O)NCC(=O)N[C@@H](CO)C(=O)N[C@@H](C)C(=O)N[C@@H](CCC(N)=O)C(=O)N[C@@H](CC(C)C)C(=O)N[C@@H](CC(C)C)C(=O)N[C@@H](CCCN=C(N)N)C(=O)N[C@@H](CCC(N)=O)C(=O)N[C@@H](CC(C)C)C(=O)N[C@@H](CCCN=C(N)N)C(=O)NCC(=O)N[C@@H](CCC(N)=O)C(=O)N[C@@H](CC(C)C)C(=O)NCC(=O)N1CCC[C@H]1C(=O)N1CCC[C@H]1C(=O)NCC(=O)N[C@H](CO)C(=O)N[C@@H](CCCN=C(N)N)C(N)=O

From ChEMBL document CHEMBL1145783, “Development of an orexin-2 receptor selective agonist, [Ala(11), D-Leu(15)]orexin-B” (Bioorg Med Chem Lett, 2003)
